Consider 23 molecules from patent US12509424B2, “Compound and composition as PDGF receptor kinase inhibitor” (NIPPON SHINYAKU CO., LTD., priority 2019, dated 2025).

Molecules are shown by their SMILES. Where two headings read alike, the source gives them in different places.

In experiment [1] the test system is pulmonary arterial smooth muscle cells. Put plainly: Suppression of proliferation of pulmonary arterial smooth muscle cells (PDGF-BB stimulation, BrdU). The note with it: PASMC, read-out: Human normal PASMC proliferation suppression (PDGF stimulation_IC50). Type of experiment: cell-based. The gist of the method:
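Test compound (final 3 to 10,000 nM) was added together with BrdU and PDGF-BB (final 10 ng/mL) to healthy human pulmonary artery smooth muscle cells held a day in 0.1% FBS. Proliferation was read after 1 day as anti-BrdU-detected BrdU incorporation.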

In experiment [2] the target is PDGFR-β (Homo sapiens (Human), UniProt P09619). Put plainly: PDGFR-β tyrosine kinase inhibitory action (HTRF KinEASE-TK). Type of experiment: biochemical. To be noted: PDGFR-β enzyme 1 ng/μL, 30° C. for 30 minutes; read-out: PDGF-β IC50. The gist of the method: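 Recombinant PDGFR-β at 1 ng/μL final with TK substrate-3-biotin in a substrate solution containing 0.6 μM ATP; buffer 50 mM HEPES pH 7.0, 5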
Chain of PDGFR-β (P09619 33-1106): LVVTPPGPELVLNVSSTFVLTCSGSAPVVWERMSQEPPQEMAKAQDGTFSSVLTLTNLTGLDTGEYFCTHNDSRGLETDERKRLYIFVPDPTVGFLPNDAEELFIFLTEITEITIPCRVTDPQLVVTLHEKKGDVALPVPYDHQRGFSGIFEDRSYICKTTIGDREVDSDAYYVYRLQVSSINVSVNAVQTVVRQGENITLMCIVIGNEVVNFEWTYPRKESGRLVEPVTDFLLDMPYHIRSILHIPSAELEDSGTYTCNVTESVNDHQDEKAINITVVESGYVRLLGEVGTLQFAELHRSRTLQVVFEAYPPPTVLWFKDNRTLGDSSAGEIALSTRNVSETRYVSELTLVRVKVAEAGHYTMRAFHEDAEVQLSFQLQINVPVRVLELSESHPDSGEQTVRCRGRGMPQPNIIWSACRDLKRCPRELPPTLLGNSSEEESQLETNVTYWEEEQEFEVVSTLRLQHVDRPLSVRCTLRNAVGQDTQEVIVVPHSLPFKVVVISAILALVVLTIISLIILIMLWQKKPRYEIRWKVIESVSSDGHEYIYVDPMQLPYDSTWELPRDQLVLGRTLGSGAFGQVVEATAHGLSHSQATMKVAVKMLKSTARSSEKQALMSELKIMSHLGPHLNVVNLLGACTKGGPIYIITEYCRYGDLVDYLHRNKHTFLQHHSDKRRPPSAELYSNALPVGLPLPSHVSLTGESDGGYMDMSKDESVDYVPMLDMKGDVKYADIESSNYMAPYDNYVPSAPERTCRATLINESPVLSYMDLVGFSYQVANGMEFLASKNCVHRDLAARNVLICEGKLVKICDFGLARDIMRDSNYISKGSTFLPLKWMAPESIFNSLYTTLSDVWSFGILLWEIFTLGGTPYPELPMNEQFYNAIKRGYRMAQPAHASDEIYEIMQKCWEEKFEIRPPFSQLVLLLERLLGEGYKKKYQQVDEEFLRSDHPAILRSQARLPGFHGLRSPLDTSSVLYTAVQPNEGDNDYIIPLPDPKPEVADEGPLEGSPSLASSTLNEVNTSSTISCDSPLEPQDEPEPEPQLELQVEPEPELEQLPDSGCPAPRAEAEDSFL

The target in experiment [3] is TEL-PDGFRβ fusion gene transfected cells (Ba/F3). The experiment is described as follows: Suppression of proliferation of TEL-PDGFRβ fusion gene transfected Ba/F3 cells. Type of experiment: cell-based, human. The note with it: TEL-PDGFRβ expressing Ba/F3 cells, 72 hours, final concentration 0.1 to 10,000 nM; read-out: PDGFR β/BaF3 proliferation inhibition (IC50). From the text:
2. Preparation of Test Substance
4. Analysis of Measurement Results

The target of experiment [4] is TEL-KIT fusion gene transfected cells (Ba/F3). Put plainly: Suppression of proliferation of TEL-KIT fusion gene transfected Ba/F3 cells.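 Note: viable cells quantified via formazan from tetrazolium reduction, inhibition scaled with 0.1% DMSO control as 0% and medium-only blank as 100%, IC50 from two-parameter logistic fit.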 The note with it: read-out: KIT/BaF3 proliferation inhibition (IC50); TEL-KIT expressing Ba/F3 cells, 72 hours, final concentration 0.1 to 10,000 nM.
Chain of TEL-KIT fusion gene transfected cells (Ba/F3) (P10721 26-976 limits assumed, change not shown): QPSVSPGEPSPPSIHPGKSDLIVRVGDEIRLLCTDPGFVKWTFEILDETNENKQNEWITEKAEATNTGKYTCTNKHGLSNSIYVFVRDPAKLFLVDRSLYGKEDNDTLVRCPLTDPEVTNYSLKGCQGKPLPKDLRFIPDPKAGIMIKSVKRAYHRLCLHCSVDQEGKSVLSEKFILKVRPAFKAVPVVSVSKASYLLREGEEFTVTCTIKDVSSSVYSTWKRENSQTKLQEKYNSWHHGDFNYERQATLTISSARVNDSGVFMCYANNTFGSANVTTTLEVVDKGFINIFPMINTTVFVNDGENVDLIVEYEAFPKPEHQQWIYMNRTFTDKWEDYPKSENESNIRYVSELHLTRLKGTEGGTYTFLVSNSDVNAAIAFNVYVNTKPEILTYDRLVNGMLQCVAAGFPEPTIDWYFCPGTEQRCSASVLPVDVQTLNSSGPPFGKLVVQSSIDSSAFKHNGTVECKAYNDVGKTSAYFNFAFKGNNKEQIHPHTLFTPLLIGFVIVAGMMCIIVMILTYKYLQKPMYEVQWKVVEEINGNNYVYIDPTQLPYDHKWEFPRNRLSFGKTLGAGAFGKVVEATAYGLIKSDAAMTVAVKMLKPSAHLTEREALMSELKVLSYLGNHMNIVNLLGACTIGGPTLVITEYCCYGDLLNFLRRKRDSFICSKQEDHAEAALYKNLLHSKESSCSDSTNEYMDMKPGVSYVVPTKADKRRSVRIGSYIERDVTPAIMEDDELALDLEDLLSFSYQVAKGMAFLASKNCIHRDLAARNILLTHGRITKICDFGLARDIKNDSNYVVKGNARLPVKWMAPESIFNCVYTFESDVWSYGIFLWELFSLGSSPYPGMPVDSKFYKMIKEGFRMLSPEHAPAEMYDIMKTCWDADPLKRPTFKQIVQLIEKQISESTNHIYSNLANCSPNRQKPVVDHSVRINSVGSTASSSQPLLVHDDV
Excerpt: Fabrication of TEL-PDGFRβ and TEL-KIT Fusion Gene Transfected Cells
Subsequently, the vectors for gene transfection were introduced using a transfection reagent (FuGENE6, Promega Corporation) into packaging cells derived from a human fetal kidney cell line, PLAT-E, in the logarithmic growth phase. Since the culture supernatant of PLAT-E after the gene transfection contained virus particles for gene transfection, it was collected and used as a medium for gene transfection. The medium for gene transfection was added to a plate coated with RetroNectin and incubated, and the virus particles were allowed to adhere to the plate. Thereafter, the mouse pro-B cell line Ba/F3 in the logarithmic growth phase was seeded onto the plate and infected with the virus to fabricate cells that proliferate in a PDGFRβ or KIT dependent manner.
The test substance was prepared with dimethyl sulfoxide (DMSO) to 10 mM and diluted with DMSO so as to reach a concentration of 0.0001 to 3 mM. Furthermore, it was diluted by 100 times with distilled water.
Measurement of Suppression Action Against Proliferation of TEL-PDGFRβ or TEL-KIT Expressing Cells
The day after TEL-PDGFRβ and TEL-KIT expressing cells were seeded onto 96 well plates, the prepared test substance solution was added thereto with a final concentration being 0.1 to 10,000 nM. After 72 hours, the viable cell count was measured using the amount of formazan generated from the reduction of a tetrazolium salt compound by the mitochondrial dehydrogenase of viable cells as an indicator.
Based on the amount of formazan in each condition, the suppression rate against cell proliferation was calculated when the amounts of formazan in the negative control (0.1% DMSO solution) and Blank (medium only) were defined as 0% and 100%, respectively. Subsequently, a nonlinear regression analysis with a two parameter logistic model for the log dose and suppression rate against cell proliferation was carried out using the SAS system (SAS Institute Inc.) to estimate the IC50 value.
Where [5] appears, read: human PDGF-BB 10 ng/mL, BrdU uptake, final concentration 3 to 10,000 nM.
[6] abbreviates: 24 h, healthy human derived pulmonary arterial smooth muscle cells, human PDGF-BB 10 ng/mL stimulation, BrdU uptake after 1 day, test substance final concentration 3 to 10,000 nM.

Chain of TEL-PDGFRβ fusion gene transfected cells (Ba/F3) (P09619 33-1106 limits assumed, change not shown): as the sequence (P09619 33-1106) above

As for `CCCc1ncc(C(=O)Nc2cc(C(=O)N[C@H]3CCCC[C@@H]3O)ccc2C)s1` [Example 10, N-(5-{[(1S,2S)-2-hydroxycyclohexyl]carbamoyl}-2-methylphenyl)-2-propyl-1,3-thiazole-5-carboxamide], the IC50 in experiment [1] (setting [5]) is 140 nM; in experiment [2] it was 220 nM; in experiment [3], 25 nM; in experiment [4], 660 nM.
With `Cc1ccc(C(=O)N[C@H]2CCCC[C@@H]2O)cc1OCc1cncc(-c2cccnc2)c1` [Example 165, 3-[([3,3′-bipyridin]-5-yl)methoxy]-N-[(1S,2S)-2-hydroxycyclohexyl]-4-methylbenzamide], the IC50 was found to be 46 nM in experiment [1] (setting [6]), 390 nM in experiment [2], 9 nM in experiment [3] and 2900 nM in experiment [4].
On the same counts, the results for `O=C(N[C@H]1CCCC[C@@H]1O)c1ccc(Cl)c(NCc2cncc(-c3ncccn3)c2)c1` [Example 104, 4-chloro-N-[(1S,2S)-2-hydroxycyclohexyl]-3-({[5-(pyrimidin-2-yl)pyridin-3-yl]methyl}amino)benzamide] are 38 nM, 260 nM, 3.4 nM and 3400 nM.
`Cc1ccc(C(=O)N[C@H]2CCCC[C@@H]2O)cc1CNc1cncc(-c2ccccn2)c1` [Example 148, 3-{[([2,3′-bipyridin]-5′-yl)amino]methyl}-N-[(1S,2S)-2-hydroxycyclohexyl]-4-methylbenzamide]: the IC50 in experiment [1] (setting [6]) is 110 nM; in experiment [2], 16 nM; in experiment [3], 2.4 nM; in experiment [4], 170 nM.
As to `Cc1ccc(C(=O)N[C@H]2CCCC[C@@H]2O)cc1CCc1cncc(-c2ccccc2)c1` [Example 174, N-[(1S,2S)-2-hydroxycyclohexyl]-4-methyl-3-[2-(5-phenylpyridin-3-yl)ethyl]benzamide], the results for the IC50 in experiment [2], in experiment [3] and in experiment [4] were 27 nM, 50 nM and 870 nM, respectively.
For the molecule `Cc1ccc(C(=O)N[C@H]2CCCC[C@@H]2O)cc1NC(=O)c1cncc(-c2ccc(C(F)(F)F)cc2)c1` [Example 21, N-(5-{[(1S,2S)-2-hydroxycyclohexyl]carbamoyl}-2-methylphenyl)-5-[4-(trifluoromethyl)phenyl]pyridine-3-carboxamide], the IC50 worked out at 140 nM in experiment [1] (setting [5]), 73 nM in experiment [2], 60 nM in experiment [3] and 2000 nM in experiment [4].
The like results for `Cc1ccc(C(=O)N[C@H]2CCCC[C@@H]2O)cc1NC(=O)c1cnc(NC(C)C)s1` [Example 27, N-(5-{[(1S,2S)-2-hydroxycyclohexyl]carbamoyl}-2-methylphenyl)-2-[(propan-2-yl)amino]-1,3-thiazole-5-carboxamide] were, in that order, 70 nM, 8.3 nM, 8.7 nM and 1000 nM.
In the case of `Cc1ccc(C(=O)N[C@H]2CCCC[C@@H]2O)cc1COc1cncc(-c2cccnc2)c1` [Example 168, 3-{[([3,3′-bipyridin]-5-yl)oxy]methyl}-N-[(1S,2S)-2-hydroxycyclohexyl]-4-methylbenzamide], the IC50 turned out to be 110 nM in experiment [1] (setting [6]), 350 nM in experiment [2], 18 nM in experiment [3] and 4100 nM in experiment [4].
In the case of `Cc1ccc(C(=O)N[C@H]2CCCC[C@@H]2O)cc1NC(=O)c1cnc(NCC2CC2)s1` [Example 8, 2-[(cyclopropylmethyl)amino]-N-(5-{[(1S,2S)-2-hydroxycyclohexyl]carbamoyl}-2-methylphenyl)-1,3-thiazole-5-carboxamide], the IC50 in experiment [1] (setting [5]) turned out to be 110 nM; in experiment [2] it was 6 nM; in experiment [3] it was 9.7 nM; in experiment [4], 650 nM.
`Cc1ccc(C(=O)N[C@H]2CCCC[C@@H]2O)cc1N[C@@H](C)c1cncc(C#Cc2ccccc2)c1` [Example 86, N-[(1S,2S)-2-hydroxycyclohexyl]-4-methyl-3-({(1S)-1-[5-(phenylethynyl)pyridin-3-yl]ethyl}amino)benzamide]: the IC50 came out at 280 nM in experiment [1] (setting [6]), 230 nM in experiment [2], 42 nM in experiment [3] and 1700 nM in experiment [4].
Consider `Cc1ccc(C(=O)N[C@H]2CCCC[C@@H]2O)cc1NCc1cncc(-c2ncccn2)c1` [Example 95, N-[(1S,2S)-2-hydroxycyclohexyl]-4-methyl-3-({[5-(pyrimidin-2-yl)pyridin-3-yl]methyl}amino)benzamide], for which the IC50 worked out at 96 nM in experiment [1] (setting [6]), 120 nM in experiment [2], 5.7 nM in experiment [3] and 1000 nM in experiment [4].
On the same counts, the results for `Cc1ccc(C(=O)N[C@H]2CCCC[C@@H]2O)cc1NC(=O)c1cncc(-c2cccc(F)c2F)c1` [Example 30, 5-(2,3-difluorophenyl)-N-(5-{[(1S,2S)-2-hydroxycyclohexyl]carbamoyl}-2-methylphenyl)pyridine-3-carboxamide] are 52 nM, 44 nM, 22 nM and 1300 nM.
For `Cc1ccc(C(=O)N[C@H]2CCCC[C@@H]2O)cc1C(=O)Nc1cncc(-c2ccccc2)c1` [Example 77, N^1-[(1S,2S)-2-hydroxycyclohexyl]-4-methyl-N^3-(5-phenylpyridin-3-yl)benzene-1,3-dicarboxamide], the IC50 in experiment [2] amounted to 38 nM; in experiment [3], 79 nM; in experiment [4] it was 600 nM.
On the same counts, the results for `Cc1ccc(C(=O)N[C@H]2CCCC[C@@H]2O)cc1OC(C)c1cncc(-c2ncccn2)c1` (stereo partly drawn) [Example 171, N-[(1S,2S)-2-hydroxycyclohexyl]-4-methyl-3-{1-[5-(pyrimidin-2-yl)pyridin-3-yl]ethoxy}benzamide] are 260 nM, 12 nM and 2400 nM.
Regarding `Cc1ccc(C(=O)N[C@H]2CCCC[C@@H]2O)cc1/C=C(\F)c1ccc(NCC2CC2)nc1` [Example 183, 3-[(Z)-2-{6-[(cyclopropylmethyl)amino]pyridin-3-yl}-2-fluoroethenyl]-N-[(1S,2S)-2-hydroxycyclohexyl]-4-methylbenzamide], the IC50 in experiment [1] (setting [6]) worked out at 24 nM; in experiment [2], 30 nM.
In the case of `COc1cncc(C(=O)Nc2cc(C(=O)N[C@H]3CCCC[C@@H]3O)ccc2C)c1` [Example 49, N-(5-{[(1S,2S)-2-hydroxycyclohexyl]carbamoyl}-2-methylphenyl)-5-methoxypyridine-3-carboxamide], the IC50 came to 250 nM in experiment [1] (setting [6]) and 120 nM in experiment [2].
For the molecule `O=C(N[C@H]1CCCC[C@@H]1O)c1ccc(F)c(/C=C(\F)c2cnc(NC3CC3)nc2)c1` [Example 203, 3-{(Z)-2-[2-(cyclopropylamino)pyrimidin-5-yl]-2-fluoroethenyl}-4-fluoro-N-[(1S,2S)-2-hydroxycyclohexyl]benzamide], the IC50 came out at 200 nM in experiment [1] (setting [6]) and 61 nM in experiment [2].
As for `O=C(N[C@H]1CCCC[C@@H]1O)c1ccc(F)c(/C=C(\F)c2cncc(F)c2)c1` [Example 207, 4-fluoro-3-[(Z)-2-fluoro-2-(5-fluoropyridin-3-yl)ethenyl]-N-[(1S,2S)-2-hydroxycyclohexyl]benzamide], the IC50 was 99 nM in experiment [1] (setting [5]) and 100 nM in experiment [2].
As for `Cc1ncc(C(=O)N[C@H]2CCCC[C@@H]2O)cc1/C=C(\F)c1cncc(NC2COC2)c1` [Example 195, 5-[(Z)-2-fluoro-2-{5-[(oxetan-3-yl)amino]pyridin-3-yl}ethenyl]-N-[(1S,2S)-2-hydroxycyclohexyl]-6-methylpyridine-3-carboxamide], the IC50 turned out to be 26 nM in experiment [1] (setting [6]) and 19 nM in experiment [2].
For `O=C(N[C@H]1CCCC[C@@H]1O)c1ccc(F)c(/C=C(\F)c2cncc(N3CCOCC3)c2)c1` [Example 184, 4-fluoro-3-{(Z)-2-fluoro-2-[5-(morpholin-4-yl)pyridin-3-yl]ethenyl}-N-[(1S,2S)-2-hydroxycyclohexyl]benzamide], the figures for the IC50 in experiment [1] (setting [6]) and in experiment [2] were 82 nM and 51 nM, respectively.
The like results for `CN1CCN(Cc2cncc(/C(F)=C/c3cc(C(=O)N[C@H]4CCCC[C@@H]4O)ccc3F)c2)CC1` [Example 186, 4-fluoro-3-[(Z)-2-fluoro-2-{5-[(4-methylpiperazin-1-yl)methyl]pyridin-3-yl}ethenyl]-N-[(1S,2S)-2-hydroxycyclohexyl]benzamide] were, in that order, 220 nM and 150 nM.
The like results for `Cc1ccc(C(=O)N[C@H]2CCCC[C@@H]2O)cc1NCc1ccc(NC2CCOCC2)nc1` [Example 125, N-[(1S,2S)-2-hydroxycyclohexyl]-4-methyl-3-[({6-[(oxan-4-yl)amino]pyridin-3-yl}methyl)amino]benzamide] were, in that order, 30 nM and 130 nM.
`COC(=O)Nc1ccc(CNc2cc(C(=O)N[C@H]3CCCC[C@@H]3O)ccc2C)cn1` [Example 124, methyl {5-[(5-{[(1S,2S)-2-hydroxycyclohexyl]carbamoyl}-2-methylanilino)methyl]pyridin-2-yl}carbamate]: the IC50 was 25 nM in experiment [1] (setting [6]) and 22 nM in experiment [2].
